Results on 26 compounds are retold here after US20100080770A1, “Hepatitis C Virus Inhibitors” (priority 2008, published 2010).

T1 sequence (P27958 1027-1711 C1454S/C1711G, one chain of several): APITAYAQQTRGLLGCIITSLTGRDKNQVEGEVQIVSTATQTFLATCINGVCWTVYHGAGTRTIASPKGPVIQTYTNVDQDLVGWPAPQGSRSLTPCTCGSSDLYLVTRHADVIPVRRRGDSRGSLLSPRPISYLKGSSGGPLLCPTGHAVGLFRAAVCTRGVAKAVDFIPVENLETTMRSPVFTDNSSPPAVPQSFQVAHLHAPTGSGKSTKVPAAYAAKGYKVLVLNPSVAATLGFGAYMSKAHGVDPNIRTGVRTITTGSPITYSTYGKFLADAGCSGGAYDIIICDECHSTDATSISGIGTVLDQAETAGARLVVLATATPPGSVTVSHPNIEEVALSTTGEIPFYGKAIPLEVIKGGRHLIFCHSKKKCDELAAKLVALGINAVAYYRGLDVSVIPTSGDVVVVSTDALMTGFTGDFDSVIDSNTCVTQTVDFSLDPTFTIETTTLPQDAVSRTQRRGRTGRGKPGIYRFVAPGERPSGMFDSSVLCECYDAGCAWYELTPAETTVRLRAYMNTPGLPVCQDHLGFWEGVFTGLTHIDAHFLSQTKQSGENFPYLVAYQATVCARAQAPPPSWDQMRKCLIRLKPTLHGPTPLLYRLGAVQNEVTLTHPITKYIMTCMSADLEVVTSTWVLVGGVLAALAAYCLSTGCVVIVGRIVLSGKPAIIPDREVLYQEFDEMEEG

The first experiment has as its target T1, HCV NS3/4A protease complex (Hepatitis C virus genotype 1a, UniProt P27958, C1454S/C1711G).
T1 construct: recombinant HCV NS3/4A protease complex (amino acids 1027 to 1711); inferred from the pET21b vector and Ni-NTA purification; made in house; host or cells: Escherichia coli BL21 (DE3)
Kind of experiment: FRET peptide assay to monitor HCV NS3/4A proteolytic activity. Type of experiment: biochemical.
Conditions: not given
The text has this:
HCV NS3 protease complexes, derived from the BMS strain, H77 strain or J4L6S strain, were generated, as described below. These purified recombinant proteins were generated for use in a homogeneous assay (see below) to provide an indication of how effective compounds of the present disclosure would be in inhibiting HCV NS3 proteolytic activity.
The H77 and J4L6S strains were used for production of recombinant NS3/4A protease complexes. DNA encoding the recombinant HCV NS3/4A protease complex (amino acids 1027 to 1711) for these strains was manipulated as described by P. Gallinari et al. (see Gallinari P, Paolini C, Brennan D, Nardi C, Steinkuhler C, De Francesco R. Biochemistry. 38(17):5620-32, (1999)). Briefly, a three-lysine solubilizing tail was added at the 3′-end of the NS4A coding region. The cysteine in the P1 position of the NS4A-NS4B cleavage site (amino acid 1711) was changed to a glycine to avoid the proteolytic cleavage of the lysine tag. Furthermore, a cysteine to serine mutation was introduced by PCR at amino acid position 1454 to prevent the autolytic cleavage in the NS3 helicase domain. The variant DNA fragment was cloned in the pET21b bacterial expression vector (Novagen) and the NS3/4A complex was expressed in Escherichia coli strain BL21 (DE3) (Invitrogen) following the protocol described by P. Gallinari et al. (see Gallinari P, Brennan D, Nardi C, Brunetti M, Tomei L, Steinkuhler C, De Francesco R., J Virol. 72(8):6758-69 (1998)) with modifications. Briefly, the NS3/4A protease complex expression was induced with 0.5 millimolar (mM) Isopropyl β-D-1-thiogalactopyranoside (IPTG) for 22 hours (h) at 20° C. A typical fermentation (1 Liter (L)) yielded approximately 10 grams (g) of wet cell paste. The cells were resuspended in lysis buffer (10 mL/g) consisting of 25 mM N-(2-Hydroxyethyl)Piperazine-N′-(2-Ethane Sulfonic acid) (HEPES), pH 7.5, 20% glycerol, 500 mM Sodium Chloride (NaCl), 0.5% Triton X-100, 1 microgram/milliliter (“μg/mL”) lysozyme, 5 mM Magnesium Chloride (MgCl2), 1 μg/ml DnaseI, 5 mM β-Mercaptoethanol (βME), Protease inhibitor-Ethylenediamine Tetraacetic acid (EDTA) free (Roche), homogenized and incubated for 20 minutes (min) at 4° C. The homogenate was sonicated and clarified by ultra-centrifugation at 235000 g for 1 hour (h) at 4° C. Imidazole was added to the supernatant to a final concentration of 15 mM and the pH adjusted to 8.0. The crude protein extract was loaded on a Nickel-Nitrilotriacetic acid (Ni-NTA) column pre-equilibrated with buffer B (25 mM HEPES, pH 8.0, 20% glycerol, 500 mM NaCl, 0.5% Triton X-100, 15 mM imidazole, 5 mM βME). The sample was loaded at a flow rate of 1 ml/min. The column was washed with 15 column volumes of buffer C (same as buffer B except with 0.2% Triton X-100). The protein was eluted with 5 column volumes of buffer D (same as buffer C except with 200 mM Imidazole).
NS3/4A protease complex-containing fractions were pooled and loaded on a desalting column Superdex-S200 pre-equilibrated with buffer D (25mM HEPES, pH 7.5, 20% glycerol, 300 mM NaCl, 0.2% Triton X-100, 10 mM βME). Sample was loaded at a flow rate of 1 mL/min. NS3/4A protease complex-containing fractions were pooled and concentrated to approximately 0.5 mg/ml. The purity of the NS3/4A protease complexes, derived from the BMS, H77 and J4L6S strains, were judged to be greater than 90% by SDS-PAGE and mass spectrometry analyses. The enzyme was stored at −80° C., thawed on ice and diluted prior to use in assay buffer.
The purpose of this in vitro assay was to measure the inhibition of HCV NS3 protease complexes, derived from the BMS strain, H77 strain or J4L6S strain, as described above, by compounds of the present disclosure. This assay provides an indication of how effective compounds of the present disclosure would be in inhibiting HCV NS3 proteolytic activity.
In order to monitor HCV NS3/4A protease activity, an NS3/4A peptide substrate was used. […]
`CO[C@@]12C[C@@H](C(=O)N[C@]3(C(=O)NS(=O)(=O)C4CC4)C[C@H]3C3CC3)N(C1)C(=O)[C@H](C(C)(C)C)NC(=O)OCCCCCCc1ccc3ccc2cc3c1` [Example 31] had a half-maximal inhibitory concentration (IC50) of 0.001 to 0.01 µM.

The same experiment, now with this note: HCV NS3/4A protease complex; strain not stated; class symbols; read-out: IC50.
Consider `COc1cc2ccc3cc2cc1CCCCOC(=O)N[C@@H](C(C)(C)C)C(=O)N1C[C@@]3(OC)C[C@H]1C(=O)N[C@]1(C(=O)NS(=O)(=O)C2CC2)C[C@H]1C1CC1` [Example 2], for which the 50% inhibitory concentration (IC50) was 0.011 to 0.012 µM.

For the compound `C=C[C@@H]1C[C@]1(NC(=O)[C@@H]1C[C@]2(OC)CN1C(=O)[C@H](C(C)(C)C)NC(=O)OCCCCc1cc3cc2ccc3cc1OC)C(=O)NS(=O)(=O)C1CC1` [Example 3], the IC50 lay within 0.001 to 0.01 µM.

Take `C=C[C@@H]1C[C@]1(NC(=O)[C@@H]1C[C@]2(OC)CN1C(=O)[C@H](C(C)(C)C)NC(=O)OCCCCCc1cc3cc2ccc3cc1OC)C(=O)NS(=O)(=O)C1CC1` [Example 5]: the IC50 was in the range of 0.001 to 0.01 µM.

As for `COc1cc2ccc3cc2cc1CCCCCOC(=O)N[C@@H](C(C)(C)C)C(=O)N1C[C@@]3(OC)C[C@H]1C(=O)N[C@]1(C(=O)NS(=O)(=O)C2CC2)C[C@H]1C1CC1` [Example 6], the 50% inhibitory concentration (IC50) was 0.001 to 0.01 µM.

For `C=C[C@@H]1C[C@]1(NC(=O)[C@@H]1C[C@]2(OC)CN1C(=O)[C@H](C(C)(C)C)NC(=O)OCCCCCCCc1cc3cc2ccc3cc1OC)C(=O)NS(=O)(=O)C1CC1` [Example 20], the IC50 fell in the range of 0.011 to 0.012 µM.

Regarding `COc1cc2ccc3cc2cc1CCCCCCCOC(=O)N[C@@H](C(C)(C)C)C(=O)N1C[C@@]3(OC)C[C@H]1C(=O)N[C@]1(C(=O)NS(=O)(=O)C2CC2)C[C@H]1C1CC1` [Example 21], the IC50 lay within 0.021 to 3.2 µM.

In the case of `COc1cc2ccc3cc2cc1CCCCCCCCOC(=O)N[C@@H](C(C)(C)C)C(=O)N1C[C@@]3(OC)C[C@H]1C(=O)N[C@]1(C(=O)NS(=O)(=O)C2CC2)C[C@H]1C1CC1` [Example 22], the IC50 is 0.001 to 0.01 µM.

Consider `C=C[C@@H]1C[C@]1(NC(=O)[C@@H]1C[C@]2(OC)CN1C(=O)[C@H](C(C)(C)C)NC(=O)OCCCCCCCCc1cc3cc2ccc3cc1OC)C(=O)NS(=O)(=O)C1CC1` [Example 23], for which the IC50 fell in the range of 0.001 to 0.01 µM.

`C=C[C@@H]1C[C@]1(NC(=O)[C@@H]1C[C@]2(OC)CN1C(=O)[C@H](C(C)(C)C)NC(=O)OCCCCCCc1cc2cc2ccccc12)C(=O)NS(=O)(=O)C1CC1` [Example 24]: the IC50 was in the range of 0.001 to 0.01 µM.

Take `COc1cc2ccc3cc2cc1CCCCCCOC(=O)N[C@@H](C(C)(C)C)C(=O)N1C[C@@]3(O)C[C@H]1C(=O)N[C@]1(C(=O)NS(=O)(=O)C2CC2)C[C@H]1C1CC1` [Example 26]: the IC50 lay in the range of 0.001 to 0.01 µM.

In the case of `COc1cc2ccc3cc2cc1CCCC(C)(C)CCOC(=O)N[C@@H](C(C)(C)C)C(=O)N1C[C@@]3(OC(=O)N(C)C)C[C@H]1C(=O)N[C@]1(C(=O)NS(=O)(=O)C2CC2)C[C@H]1C1CC1` [Example 27], the half-maximal inhibitory concentration (IC50) fell in the range of 0.001 to 0.01 µM.

With `COCO[C@@]12C[C@@H](C(=O)N[C@]3(C(=O)NS(=O)(=O)C4CC4)C[C@H]3C3CC3)N(C1)C(=O)[C@H](C(C)(C)C)NC(=O)OCCC(C)(C)CCCc1cc3cc2ccc3cc1OC` [Example 28], the concentration for half-maximal inhibition (IC50) lay within 0.001 to 0.01 µM.

In the case of `C=C[C@@H]1C[C@]1(NC(=O)[C@@H]1C[C@]2(OC)CN1C(=O)[C@H](C(C)(C)C)NC(=O)OCCCCCCc1cc3cc2ccc3cc1N(C)C)C(=O)NS(=O)(=O)C1CC1` [Example 29], the IC50 lay within 0.001 to 0.01 µM.

Turning to `CO[C@@]12C[C@@H](C(=O)N[C@]3(C(=O)NS(=O)(=O)C4CC4)C[C@H]3C3CC3)N(C1)C(=O)[C@H](C(C)(C)C)NC(=O)OCCCCCCc1cc3cc2ccc3cc1N(C)C` [Example 30], the 50% inhibitory concentration (IC50) fell in the range of 0.001 to 0.01 µM.

`COc1c2cc3cc(ccc3c1Br)[C@]1(OC)C[C@@H](C(=O)N[C@]3(C(=O)NS(=O)(=O)C4CC4)C[C@H]3C3CC3)N(C1)C(=O)[C@H](C(C)(C)C)NC(=O)OCCC(C)(C)CCC2` [Example 33]: the IC50 lay within 0.011 to 0.012 µM.

Turning to `COc1ccc2ccc3cc2c1CCCCCOC(=O)N[C@@H](C(C)(C)C)C(=O)N1C[C@@]3(OC)C[C@H]1C(=O)N[C@]1(C(=O)NS(=O)(=O)C2CC2)C[C@H]1C1CC1` [Example 36], the concentration for half-maximal inhibition (IC50) is 0.021 to 3.2 µM.

Turning to `COc1ccc2ccc3cc2c1CCCCOC(=O)N[C@@H](C(C)(C)C)C(=O)N1C[C@@]3(OC)C[C@H]1C(=O)N[C@]1(C(=O)NS(=O)(=O)C2CC2)C[C@H]1C1CC1` [Example 37], the IC50 was 0.021 to 3.2 µM.

As to `COc1cc2ccc3cc2cc1CCCC(C)(C)CCOC(=O)N[C@@H](C(C)C)C(=O)N1C[C@@]3(OC)C[C@H]1C(=O)N[C@]1(C(=O)NS(=O)(=O)C2CC2)C[C@H]1C1CC1` [Example 38], the IC50 was in the range of 0.001 to 0.01 µM.

In the case of `COc1cc2ccc3cc2cc1CCCC(C)(C)CCOC(=O)N[C@@H](C1CCOCC1)C(=O)N1C[C@@]3(OC)C[C@H]1C(=O)N[C@]1(C(=O)NS(=O)(=O)C2CC2)C[C@H]1C1CC1` [Example 39], the IC50 is 0.001 to 0.01 µM.

With `COc1cc2ccc3cc2cc1CCCC(C)(C)CCNC(=O)N[C@@H](C(C)(C)C)C(=O)N1C[C@@]3(OC)C[C@H]1C(=O)N[C@]1(C(=O)NS(=O)(=O)C2CC2)C[C@H]1C1CC1` [Example 40], the IC50 is 0.001 to 0.01 µM.

For the compound `COc1cc2ccc3cc2cc1CCCCCCCC(=O)N[C@@H](C(C)(C)C)C(=O)N1C[C@@]3(OC)C[C@H]1C(=O)N[C@]1(C(=O)NS(=O)(=O)C2CC2)C[C@H]1C1CC1` [Example 41], the IC50 was 0.001 to 0.01 µM.

Staying with this experiment, now noted: HCV NS3/4A protease complex; strain not stated; numeric values; read-out: IC50.
Regarding `C=C[C@@H]1C[C@]1(NC(=O)[C@@H]1C[C@]2(OC)CN1C(=O)[C@H](C(C)(C)C)NC(=O)OCCCCCc1cc2cc2ccccc12)C(=O)NS(=O)(=O)C1CC1` [Example 25], the IC50 stood at 0.24 µM.

For `COc1c2cc3cc(ccc3c1Cl)[C@]1(OC)C[C@@H](C(=O)N[C@]3(C(=O)NS(=O)(=O)C4CC4)C[C@H]3C3CC3)N(C1)C(=O)[C@H](C(C)(C)C)NC(=O)OCCC(C)(C)CCC2` [Example 32], the IC50 was 0.025 µM.

Turning to `COc1cc2ccc3cc2cc1CCCC1(CCOC(=O)N[C@@H](C(C)(C)C)C(=O)N2C[C@@]3(OC)C[C@H]2C(=O)N[C@]2(C(=O)NS(=O)(=O)C3CC3)C[C@H]2C2CC2)CC1` [Example 34], the 50% inhibitory concentration (IC50) turned out to be 0.001 µM.

For `COc1ccc2ccc3cc2c1CCCCCCOC(=O)N[C@@H](C(C)(C)C)C(=O)N1C[C@@]3(OC)C[C@H]1C(=O)N[C@]1(C(=O)NS(=O)(=O)C2CC2)C[C@H]1C1CC1` [Example 35], the IC50 worked out at 0.413 µM.

One may read the IC50 as the concentration at which inhibition is half-maximal.
